Measured values from ChEMBL document CHEMBL4387741, “Optimization of novel reversible Bruton's tyrosine kinase inhibitors identified using Tethering-fragment-based screens” (Bioorg Med Chem, 2019).
≈ marks a conversion by molar mass, not a printed value.

Assays:
[1] = target: Cyclin-dependent kinase 8 (Homo sapiens) (UniProt P49336); assay: Inhibition of wild-type human partial length CDK8 (M1 to T360 residues) expressed in bacterial expression system at 1 uM by Kinomescan method relative to control
[2] = target: Activin receptor type-1 (Homo sapiens) (UniProt Q04771); assay: Inhibition of wild-type human ACVR1 (C188 to C509 residues) expressed in bacterial expression system at 1 uM by Kinomescan method relative to control
[3] = target: Serine/threonine-protein kinase N2 (Homo sapiens) (UniProt Q16513); assay: Inhibition of wild-type human partial length PKN2 (E634 to C984 residues) expressed in bacterial expression system at 1 uM by Kinomescan method relative to control
[4] = target: Cyclin-dependent kinase 11B (Homo sapiens) (UniProt P21127); assay: Inhibition of wild-type human partial length CDC2L1 (P353 to G692 residues) expressed in bacterial expression system at 1 uM by Kinomescan method relative to control
Cyclin-dependent kinase 11B (Homo sapiens), sequence (P21127 whole entry, the tested form may be a part): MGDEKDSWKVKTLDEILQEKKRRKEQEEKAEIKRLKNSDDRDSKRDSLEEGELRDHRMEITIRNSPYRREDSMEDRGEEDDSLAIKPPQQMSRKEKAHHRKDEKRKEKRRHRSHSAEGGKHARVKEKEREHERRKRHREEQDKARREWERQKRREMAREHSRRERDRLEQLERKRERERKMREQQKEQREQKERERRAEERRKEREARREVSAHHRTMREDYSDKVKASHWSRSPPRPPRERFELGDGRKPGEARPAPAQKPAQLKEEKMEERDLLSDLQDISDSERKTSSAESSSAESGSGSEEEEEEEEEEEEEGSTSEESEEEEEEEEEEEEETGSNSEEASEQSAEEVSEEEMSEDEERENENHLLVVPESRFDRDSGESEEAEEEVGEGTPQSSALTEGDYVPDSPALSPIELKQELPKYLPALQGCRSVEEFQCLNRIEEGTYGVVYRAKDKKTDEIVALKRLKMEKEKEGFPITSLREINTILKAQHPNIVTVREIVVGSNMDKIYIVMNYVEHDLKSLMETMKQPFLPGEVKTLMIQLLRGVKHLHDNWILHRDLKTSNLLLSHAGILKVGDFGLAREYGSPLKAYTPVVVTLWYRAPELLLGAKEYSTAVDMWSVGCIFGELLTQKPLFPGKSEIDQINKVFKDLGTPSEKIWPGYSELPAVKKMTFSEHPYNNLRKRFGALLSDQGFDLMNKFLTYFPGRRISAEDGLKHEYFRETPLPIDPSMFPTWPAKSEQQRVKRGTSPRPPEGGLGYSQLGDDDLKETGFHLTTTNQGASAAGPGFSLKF

[5] = target: Mitogen-activated protein kinase kinase kinase 11 (Homo sapiens) (UniProt Q16584); assay: Inhibition of wild-type human partial length MLK3 (I77 to W399 residues) expressed in bacterial expression system at 1 uM by Kinomescan method relative to control
[6] = target: TGF-beta receptor type-1 (Homo sapiens) (UniProt P36897); assay: Inhibition of wild-type human partial length TGFBR1 (D179 to M503 residues) expressed in bacterial expression system at 1 uM by Kinomescan method relative to control
TGF-beta receptor type-1 (Homo sapiens), sequence (P36897 whole entry, the tested form may be a part): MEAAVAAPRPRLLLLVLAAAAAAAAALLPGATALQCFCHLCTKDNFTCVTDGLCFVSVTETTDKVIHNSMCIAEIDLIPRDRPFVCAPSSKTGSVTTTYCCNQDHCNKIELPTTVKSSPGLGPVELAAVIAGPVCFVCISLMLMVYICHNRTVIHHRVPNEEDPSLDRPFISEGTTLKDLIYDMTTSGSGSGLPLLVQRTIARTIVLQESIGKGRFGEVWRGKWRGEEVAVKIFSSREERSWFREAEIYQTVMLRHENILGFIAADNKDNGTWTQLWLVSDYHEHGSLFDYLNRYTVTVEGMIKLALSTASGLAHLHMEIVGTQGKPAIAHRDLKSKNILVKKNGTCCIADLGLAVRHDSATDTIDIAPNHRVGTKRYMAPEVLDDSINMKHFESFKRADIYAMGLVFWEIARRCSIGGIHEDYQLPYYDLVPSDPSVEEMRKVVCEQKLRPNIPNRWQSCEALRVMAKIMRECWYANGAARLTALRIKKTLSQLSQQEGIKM

[7] = Aqueous kinetic solubility of the compound at pH 6.8 by shake flask assay; assay type: physicochemical; conditions: read-out: Kinetic_solubility
[8] = target: Serine/threonine-protein kinase WNK3 (Homo sapiens) (UniProt Q9BYP7); assay: Inhibition of wild-type human partial length WNK3 (M1 to D434 residues) expressed in mammalian expression system at 1 uM by Kinomescan method relative to control
[9] = target: Ribosomal protein S6 kinase alpha-5 (Homo sapiens) (UniProt O75582); assay: Inhibition of wild-type human partial length N-terminal RPS6KA5 kinase domain 1 expressed in bacterial expression system at 1 uM by Kinomescan method relative to control
Ribosomal protein S6 kinase alpha-5 (Homo sapiens), sequence (O75582 whole entry, looked up, the tested form may be a part): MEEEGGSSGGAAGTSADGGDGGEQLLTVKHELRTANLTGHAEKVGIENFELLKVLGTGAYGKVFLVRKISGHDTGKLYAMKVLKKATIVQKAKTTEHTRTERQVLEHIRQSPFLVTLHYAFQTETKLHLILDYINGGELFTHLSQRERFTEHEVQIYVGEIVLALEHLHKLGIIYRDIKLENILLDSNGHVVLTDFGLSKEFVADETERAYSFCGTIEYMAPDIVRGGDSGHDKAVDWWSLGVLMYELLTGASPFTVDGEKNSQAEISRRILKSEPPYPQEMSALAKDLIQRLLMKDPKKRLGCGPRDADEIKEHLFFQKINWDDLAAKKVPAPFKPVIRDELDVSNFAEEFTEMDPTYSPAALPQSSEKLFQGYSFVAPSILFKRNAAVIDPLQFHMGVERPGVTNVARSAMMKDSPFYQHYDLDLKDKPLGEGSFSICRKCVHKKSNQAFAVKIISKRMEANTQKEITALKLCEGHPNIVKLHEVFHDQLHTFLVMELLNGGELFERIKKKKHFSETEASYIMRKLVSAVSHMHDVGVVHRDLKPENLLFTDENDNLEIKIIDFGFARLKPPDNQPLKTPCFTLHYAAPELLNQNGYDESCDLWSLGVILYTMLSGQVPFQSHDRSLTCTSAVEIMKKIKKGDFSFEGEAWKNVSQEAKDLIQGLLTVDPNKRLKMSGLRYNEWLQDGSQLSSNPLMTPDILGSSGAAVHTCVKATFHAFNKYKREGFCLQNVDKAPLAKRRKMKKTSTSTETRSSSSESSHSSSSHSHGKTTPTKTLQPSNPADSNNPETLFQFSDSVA

[10] = test system: Epidermal growth factor receptor (Homo sapiens), P00533 [G719S]; assay: Inhibition of human partial length EGFR G719S mutant (R669 to V1011 residues) expressed in bacterial expression system at 1 uM by Kinomescan method relative to control
[11] = test system: Tyrosine-protein kinase ABL1 (Homo sapiens), P00519 [T315I]; assay: Inhibition of human non-phosphorylated ABL1 T315I mutant (S229 to K512 residues) expressed in mammalian expression system at 1 uM by Kinomescan method relative to control
[12] = target: LIM domain kinase 2 (Homo sapiens) (UniProt P53671); assay: Inhibition of wild-type human full length LIMK2 (M1 to P638 residues) expressed in bacterial expression system at 1 uM by Kinomescan method relative to control
[13] = target: Interleukin-1 receptor-associated kinase 1 (Homo sapiens) (UniProt P51617); assay: Inhibition of wild-type human partial length IRAK1 (R194 to S712 residues) expressed in mammalian expression system at 1 uM by Kinomescan method relative to control
[14] = target: Ribosomal protein S6 kinase beta-1 (Homo sapiens) (UniProt P23443); assay: Inhibition of wild-type human partial length S6K1 (M1 to S421 residues) expressed in mammalian expression system at 1 uM by Kinomescan method relative to control
Ribosomal protein S6 kinase beta-1 (Homo sapiens), sequence (P23443 whole entry, looked up, the tested form may be a part): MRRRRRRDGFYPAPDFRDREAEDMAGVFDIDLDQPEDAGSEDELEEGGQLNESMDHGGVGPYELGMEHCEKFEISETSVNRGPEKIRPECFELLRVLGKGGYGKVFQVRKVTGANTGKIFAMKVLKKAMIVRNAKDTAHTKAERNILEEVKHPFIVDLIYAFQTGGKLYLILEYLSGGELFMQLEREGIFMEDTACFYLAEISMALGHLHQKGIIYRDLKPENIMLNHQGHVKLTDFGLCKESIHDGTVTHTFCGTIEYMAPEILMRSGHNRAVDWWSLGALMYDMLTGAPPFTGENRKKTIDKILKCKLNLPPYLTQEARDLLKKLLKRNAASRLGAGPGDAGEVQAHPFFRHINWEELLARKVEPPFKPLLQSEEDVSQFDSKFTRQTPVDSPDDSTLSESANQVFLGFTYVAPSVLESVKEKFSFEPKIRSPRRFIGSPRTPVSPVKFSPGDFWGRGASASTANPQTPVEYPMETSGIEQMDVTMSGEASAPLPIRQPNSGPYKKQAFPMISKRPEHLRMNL

[15] = target: Protein-tyrosine kinase 2-beta (Homo sapiens) (UniProt Q14289); assay: Inhibition of wild-type human full length PYK2 (M1 to E967 residues) expressed in bacterial expression system at 1 uM by Kinomescan method relative to control
[16] = target: Phosphorylase b kinase gamma catalytic chain, skeletal muscle/heart isoform (Homo sapiens) (UniProt Q16816); assay: Inhibition of wild-type human full length PHKG1 (M1 to Y387 residues) expressed in bacterial expression system at 1 uM by Kinomescan method relative to control
[17] = target: Phosphatidylinositol 4-phosphate 3-kinase C2 domain-containing subunit beta (Homo sapiens) (UniProt O00750); assay: Inhibition of wild-type human partial length PIK3C2B (M1 to L1634 residues) expressed in mammalian expression system at 1 uM by Kinomescan method relative to control
[18] = target: Cyclin-dependent kinase 4 (Homo sapiens) (UniProt P11802); assay: Inhibition of wild-type human full length CDK4 (M1 to E303 residues) expressed in mammalian expression system at 1 uM by Kinomescan method relative to control
Cyclin-dependent kinase 4 (Homo sapiens), sequence (P11802 whole entry, the tested form may be a part): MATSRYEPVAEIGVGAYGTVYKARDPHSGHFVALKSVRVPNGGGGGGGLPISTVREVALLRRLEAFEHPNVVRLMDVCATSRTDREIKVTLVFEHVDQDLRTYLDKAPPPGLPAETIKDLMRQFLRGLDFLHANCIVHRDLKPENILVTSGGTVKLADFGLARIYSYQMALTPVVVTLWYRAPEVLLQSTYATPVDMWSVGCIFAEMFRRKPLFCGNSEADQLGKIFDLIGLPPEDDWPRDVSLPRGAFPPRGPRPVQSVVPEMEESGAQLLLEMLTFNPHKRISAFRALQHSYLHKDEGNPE

[19] = target: Cyclin-dependent kinase-like 1 (Homo sapiens) (UniProt Q00532); assay: Inhibition of wild-type human full length CDKL1 (M1 to I358 residues) expressed in mammalian expression system at 10 uM by Kinomescan method relative to control
Cyclin-dependent kinase-like 1 (Homo sapiens), sequence (Q00532 whole entry, the tested form may be a part): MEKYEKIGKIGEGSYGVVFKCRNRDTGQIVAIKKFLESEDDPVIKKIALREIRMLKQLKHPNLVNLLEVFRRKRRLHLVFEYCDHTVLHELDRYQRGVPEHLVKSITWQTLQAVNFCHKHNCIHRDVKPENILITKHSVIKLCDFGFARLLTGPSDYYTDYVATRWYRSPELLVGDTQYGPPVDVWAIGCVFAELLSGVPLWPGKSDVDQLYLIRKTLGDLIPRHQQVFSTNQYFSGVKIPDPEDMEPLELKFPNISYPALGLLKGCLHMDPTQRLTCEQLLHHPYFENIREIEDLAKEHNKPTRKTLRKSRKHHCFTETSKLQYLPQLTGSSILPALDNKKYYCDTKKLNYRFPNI

[20] = target: Discoidin domain-containing receptor 2 (Homo sapiens) (UniProt Q16832); assay: Inhibition of wild-type human partial length DDR2 (V555 to E855 residues) expressed in mammalian expression system at 10 uM by Kinomescan method relative to control
Discoidin domain-containing receptor 2 (Homo sapiens), sequence (Q16832 whole entry, the tested form may be a part): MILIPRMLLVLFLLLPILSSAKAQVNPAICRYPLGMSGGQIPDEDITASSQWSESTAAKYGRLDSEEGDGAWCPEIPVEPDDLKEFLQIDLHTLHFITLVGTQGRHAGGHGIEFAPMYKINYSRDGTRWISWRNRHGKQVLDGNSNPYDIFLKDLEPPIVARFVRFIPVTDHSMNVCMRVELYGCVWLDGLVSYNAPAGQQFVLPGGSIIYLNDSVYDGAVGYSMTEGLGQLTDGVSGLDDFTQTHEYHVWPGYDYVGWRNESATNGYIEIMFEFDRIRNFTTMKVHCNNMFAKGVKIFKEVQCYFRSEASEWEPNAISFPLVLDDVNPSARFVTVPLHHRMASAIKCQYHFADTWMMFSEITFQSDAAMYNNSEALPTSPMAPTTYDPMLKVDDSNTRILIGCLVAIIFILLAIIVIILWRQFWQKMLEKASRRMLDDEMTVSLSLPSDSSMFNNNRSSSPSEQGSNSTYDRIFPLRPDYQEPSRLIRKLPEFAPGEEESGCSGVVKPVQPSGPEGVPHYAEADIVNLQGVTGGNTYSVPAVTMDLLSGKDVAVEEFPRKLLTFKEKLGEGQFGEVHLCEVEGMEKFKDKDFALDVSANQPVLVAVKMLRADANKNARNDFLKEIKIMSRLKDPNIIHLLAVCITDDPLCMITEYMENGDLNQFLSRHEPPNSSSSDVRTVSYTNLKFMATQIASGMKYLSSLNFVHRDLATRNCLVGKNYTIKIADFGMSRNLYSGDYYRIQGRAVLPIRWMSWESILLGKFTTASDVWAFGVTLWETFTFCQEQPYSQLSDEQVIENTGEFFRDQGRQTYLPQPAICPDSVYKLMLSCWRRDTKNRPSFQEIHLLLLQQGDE

[21] = target: RAF proto-oncogene serine/threonine-protein kinase (Homo sapiens) (UniProt P04049); assay: Inhibition of wild-type human partial length RAF1 (I330 to T640 residues) expressed in bacterial expression system at 10 uM by Kinomescan method relative to control
[22] = target: Mast/stem cell growth factor receptor Kit (Homo sapiens) (UniProt P10721); assay: Inhibition of wild-type human partial length KIT (I571 to D952 residues) expressed in bacterial expression system at 10 uM by Kinomescan method relative to control
[23] = test system: Mast/stem cell growth factor receptor Kit (Homo sapiens), P10721 [V559D,T670I]; assay: Inhibition of human partial length KIT V559D/T670I double mutant (Y545 to D952 residues) expressed in bacterial expression system at 10 uM by Kinomescan method relative to control
[24] = test system: Receptor-type tyrosine-protein kinase FLT3 (Homo sapiens), P36888 [UNDEFINED MUTATION]; assay: Inhibition of human partial length FLT3 ITD/D835V double mutant expressed in bacterial expression system at 10 uM by Kinomescan method relative to control
[25] = target: Serine/threonine-protein kinase 38 (Homo sapiens) (UniProt Q15208); assay: Inhibition of wild-type human partial length NDR1 (N33 to E449 residues) expressed in mammalian expression system at 10 uM by Kinomescan method relative to control
[26] = target: Receptor tyrosine-protein kinase erbB-2 (Homo sapiens) (UniProt P04626); assay: Inhibition of wild-type human partial length ERBB2 (K646 to V1225 residues) expressed in mammalian expression system at 10 uM by Kinomescan method relative to control
[27] = target: Ribosomal protein S6 kinase alpha-1 (Homo sapiens) (UniProt Q15418); assay: Inhibition of wild-type human partial length N-terminal RSK1 Kinase domain 1 (M1 to E388 residues) expressed in bacterial expression system at 10 uM by Kinomescan method relative to control
Ribosomal protein S6 kinase alpha-1 (Homo sapiens), sequence (Q15418 whole entry, the tested form may be a part): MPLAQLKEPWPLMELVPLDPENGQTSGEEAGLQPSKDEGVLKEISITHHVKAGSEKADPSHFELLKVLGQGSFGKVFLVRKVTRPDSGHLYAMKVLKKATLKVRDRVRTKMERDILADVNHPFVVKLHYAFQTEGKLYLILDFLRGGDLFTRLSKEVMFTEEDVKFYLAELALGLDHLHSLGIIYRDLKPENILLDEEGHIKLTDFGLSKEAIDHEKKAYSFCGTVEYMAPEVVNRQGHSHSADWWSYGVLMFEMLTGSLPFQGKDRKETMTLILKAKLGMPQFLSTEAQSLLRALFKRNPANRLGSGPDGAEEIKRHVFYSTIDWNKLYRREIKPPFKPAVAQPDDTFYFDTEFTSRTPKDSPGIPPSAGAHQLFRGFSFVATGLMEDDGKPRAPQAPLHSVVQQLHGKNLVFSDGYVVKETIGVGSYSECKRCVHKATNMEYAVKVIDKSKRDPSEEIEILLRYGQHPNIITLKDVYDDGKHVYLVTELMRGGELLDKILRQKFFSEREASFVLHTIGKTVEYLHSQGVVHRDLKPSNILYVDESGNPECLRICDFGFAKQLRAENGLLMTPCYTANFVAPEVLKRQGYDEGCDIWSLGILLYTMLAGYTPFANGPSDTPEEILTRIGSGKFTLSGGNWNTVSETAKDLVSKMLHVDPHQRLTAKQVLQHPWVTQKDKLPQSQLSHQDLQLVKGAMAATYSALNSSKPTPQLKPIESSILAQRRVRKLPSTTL

Question: Which results are given for `O=C(Nc1cccc([C@@H]2CN(c3ncnc4[nH]ccc34)CCN2CCO)c1)Nc1c(F)cccc1N1CCCC1`?
Answer: inhibition [1]: 84%; inhibition [2]: 100%; inhibition [3]: 75%; inhibition [4]: 100%; inhibition [5]: 100%; inhibition [6]: 71%; solubility kinetic [7]: 8 µg/mL (≈ 14.7 µM); inhibition [8]: 61%; inhibition [9]: 99%; inhibition [10]: 90%; inhibition [11]: 100%; inhibition [12]: 100%; inhibition [13]: 92%; inhibition [14]: 48%; inhibition [15]: 84%; inhibition [16]: 98%; inhibition [17]: 87%; inhibition [18]: 100%

Question: Which inhibition [19] does the source give for `O=C(Nc1cccc([C@H]2CCCN(c3ncnc4[nH]ccc34)C2)c1)Nc1ccccc1N1CCCC1` here?
Answer: 74%

Question: What about the inhibition [20] of the same compound?
Answer: 0.55%

Question: And the inhibition [21]?
Answer: 86%

Question: What about the inhibition [22] of the same compound?
Answer: 0.25%

Question: What about the inhibition [23] of the same compound?
Answer: 0.3%

Question: And the inhibition [24]?
Answer: 8.3%

Question: And the inhibition [25]?
Answer: 57%

Question: And the inhibition [26]?
Answer: 55%

Question: What about the inhibition [27] of the same compound?
Answer: 42%
